Experimental data reported in patent US12421220B2, “Bicyclic-substituted glutarimide cereblon binders” (C4 THERAPEUTICS, INC., priority 2022, dated 2025).
pKd: −log10 of the molar value. Read-outs that look alike come from different tables or passages of the source.

Columns and labels:
CRBN-DDB1 (CRBN_DDB1.3) [1] = molecular target: T1, CRBN-DDB1 (CRBN_DDB1.3) (Homo sapiens, UniProt Q96SW2); experiment: Fluorescence polarization (FP) binding assay, CRBN_DDB1.3 construct; conditions: for Kd: 0.05% PA, 0.1% BSA
Description: (§1) Example 2: Fluorescence Polarization (FP) Assay for Screening Compound Ligand Binders of CRBN-DDB1
(§2) Measuring compound ligand binding to CRBN-DDB 1 was carried out using an established sensitive and quantitative in vitro fluorescence polarization (FP) based binding assay. (See, I. J. Enyedy et al, J. Med. Chem., 44: […] [2001]). Compounds were dispensed from serially diluted DMSO stock into black 384-well compatible fluorescence polarization plates using an Echo acoustic dispenser. Compound binding to CRBN-DDB 1 was measured by displacement of an established CRBN binding ligand conjugated to an Alexa Fluor® dye (probe). A […] mixture containing 10nM CRBN-DDB1 and 5 nM probe in 50 mM Hepes, pH 7.4, 200 mM NaCl, 1% DMSO, 0.1% BSA and 0.05% o pluronic acid-127 acid was added to wells containing compound and incubated at room temperature for 60 min. Matching control wells excluding CRBN-DDB 1 were used to correct for background fluorescence. Plates were read on an Envision plate reader with appropriate FP filter sets. The corrected S (perpendicular) and P (parallel) values were used to calculate fluorescence polarization (FP) with the following equation: FP=1000*(S−G*P)/(S+G*P).
(§3) The fractional amount of bound probe (FB) to CRBN-DDB 1 as a function of compound concentration was fitted according to Wang; FEBS Letters 360, (1995), 111-114 to obtain fits for parameter offsets and binding constant (KA) of competitor compound.

CRBN-DDB1 (CRBN_DDB1.7) = CRBN-DDB1 (CRBN_DDB1.7) (Homo sapiens, UniProt Q96SW2); experiment: Fluorescence polarization (FP) binding assay, CRBN_DDB1.7 construct; conditions: 0.05% PA, 0.1% BSA
Description: as §1, §2, §3

CRBN-DDB1 (CRBN_DDB1.3) [2] = molecular target: T1, CRBN-DDB1 (CRBN_DDB1.3); experiment: Fluorescence polarization (FP) binding assay, CRBN_DDB1.3 construct; conditions: 0.05% PA (no BSA); benzomorpholine binders; read-out: FP CRBN_DDB1.3 0.05% PA Ka
[3] = indoline binders, read-out: FP CRBN_DDB1.3 0.05% PA, 0.1% BSA ka nM
[4] = indoline binders, read-out: FP CRBN_DDB1.7 0.05% PA, 0.1% BSA ka nM
[5] = tetrahydroquinoline binders, read-out: FP CRBN_DDB1.3 0.05% PA, 0.1% BSA ka nM
[6] = tetrahydroquinoline binders, read-out: FP CRBN_DDB1.7 0.05% PA, 0.1% BSA ka nM
[7] = benzomorpholine binders, read-out: FP CRBN_DDB1.3 0.05% PA, 0.1% BSA Ka nM

CRBN-DDB1 (CRBN_DDB1.7), sequence (Q96SW2 81-442 limits assumed): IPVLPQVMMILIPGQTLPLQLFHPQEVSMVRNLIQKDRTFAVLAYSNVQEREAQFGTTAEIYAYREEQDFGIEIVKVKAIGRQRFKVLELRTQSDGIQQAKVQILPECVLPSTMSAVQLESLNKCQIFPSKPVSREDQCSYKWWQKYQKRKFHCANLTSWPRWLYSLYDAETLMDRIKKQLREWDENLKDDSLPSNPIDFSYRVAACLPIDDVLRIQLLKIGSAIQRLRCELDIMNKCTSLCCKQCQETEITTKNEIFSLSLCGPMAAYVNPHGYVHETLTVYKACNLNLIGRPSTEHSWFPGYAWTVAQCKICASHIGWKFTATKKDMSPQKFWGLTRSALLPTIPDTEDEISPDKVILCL
T1 sequence (Q96SW2 318-426 limits assumed): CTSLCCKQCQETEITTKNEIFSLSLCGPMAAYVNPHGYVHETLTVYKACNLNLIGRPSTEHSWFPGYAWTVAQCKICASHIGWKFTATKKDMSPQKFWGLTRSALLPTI

SMILES | Kd (CRBN-DDB1 (CRBN_DDB1.3) [1]; [3]) [nM] | Kd (CRBN-DDB1 (CRBN_DDB1.7); [4]) [nM] | also measured
CN(C(=O)OC(C)(C)C)C1CCN(c2cccc3c2CCN3C2CCC(=O)NC2=O)CC1 (racemic) [Compound 34-5, tert-butyl (1-(1-(2,6-dioxopiperidin-3-yl)indolin-4-yl)piperidin-4-yl)(methyl)carbamate] | < 100000 | < 100000 | 
CC(C)(C)OC(=O)N1CCC(c2cccc3c2CCN3[C@@H]2CCC(=O)NC2=O)CC1 (single isomer, unassigned) [Compound 41-4] |  | < 100000 | 
CC(C)(C)OC(=O)N1CCC(c2cccc3c2CCN3[C@H]2CCC(=O)NC2=O)CC1 (single isomer, unassigned) [Compound 41-5] |  | < 1000 | 
O=C1CC[C@H](N2CCc3c(N4CCC(CCO)CC4)cccc32)C(=O)N1 (single isomer, unassigned) [Compound 42-5] | < 100000 | < 100000 | 
O=C1CC[C@@H](N2CCc3c(N4CCC(CCO)CC4)cccc32)C(=O)N1 (single isomer, unassigned) [Compound 42-6] | < 1000 | < 1000 | 
O=C1CC[C@@H](N2CCc3c(N4CCC(O)CC4)cccc32)C(=O)N1 (single isomer, unassigned) [Compound 43-4] |  | < 1000 | 
CC(C)(C)OC(=O)N1CCC(c2cccc3c2CCCN3[C@@H]2CCC(=O)NC2=O)CC1 (single isomer, unassigned) [Compound 59-5] |  |  | Kd (CRBN-DDB1 (CRBN_DDB1.3) [1]; [5]): < 100000 nM; Kd (CRBN-DDB1 (CRBN_DDB1.7); [6]): < 100000 nM
CC(C)(C)OC(=O)N1CCC(c2cccc3c2CCCN3[C@H]2CCC(=O)NC2=O)CC1 (single isomer, unassigned) [Compound 59-6] |  |  | Kd (CRBN-DDB1 (CRBN_DDB1.3) [1]; [5]): < 100000 nM; Kd (CRBN-DDB1 (CRBN_DDB1.7); [6]): < 100000 nM
CC(C)(C)OC(=O)N1CCC(c2cccc3c2OCCN3C2CCC(=O)NC2=O)CC1 (stereo not drawn) [Compound 9-6, tert-butyl 4-[4-(2,6-dioxo-3-piperidyl)-2,3-dihydro-1,4-benzoxazin-8-yl]piperidine-1-carboxylate] |  |  | pKd (CRBN-DDB1 (CRBN_DDB1.3) [2]): ≥ 4.00; FP CRBN_DDB1.3 0.05% PA, 0.1% BSA Ka nM (CRBN-DDB1 (CRBN_DDB1.3) [1]; benzomorpholine binders): ** (≤100 μM is **)
O=C1CCC(N2CCOc3c(C4CCNCC4)cccc32)C(=O)N1 (stereo not drawn) [Compound 9-11, 3-[8-(4-piperidyl)-2,3-dihydro-1,4-benzoxazin-4-yl]piperidine-2,6-dione] |  |  | pKd (CRBN-DDB1 (CRBN_DDB1.3) [2]): ≥ 4.00
CNC1CCN(c2cccc3c2O[C@@H](C)CN3C2CCC(=O)NC2=O)CC1 (stereo partly drawn) [Compound 18-13, 3-[(2S)-2-methyl-8-[4-(methylamino)-1-piperidyl]-2,3-dihydro-1,4-benzoxazin-4-yl]piperidine-2,6-dione] |  |  | Kd (CRBN-DDB1 (CRBN_DDB1.3) [1]; [7]): ≤ 100000 nM
O=C1CCC(N2CCOc3c(C4CCC5(CCNCC5)CC4)cccc32)C(=O)N1 (stereo not drawn) [Compound 20-7, 3-[8-(3-azaspiro[5.5]undecan-9-yl)-2,3-dihydro-1,4-benzoxazin-4-yl]piperidine-2,6-dione] |  |  | Kd (CRBN-DDB1 (CRBN_DDB1.3) [1]; [7]): ≤ 100000 nM
O=C1CCC(N2CCOc3c(N4CCC(O)(C(=O)O)CC4)cccc32)C(=O)N1 (stereo not drawn) [Compound 27-8, 1-[4-(2,6-dioxo-3-piperidyl)-2,3-dihydro-1,4-benzoxazin-8-yl]-4-hydroxy-piperidine-4-carboxylic acid] |  |  | Kd (CRBN-DDB1 (CRBN_DDB1.3) [1]; [7]): ≤ 100000 nM
O=C(O)CN1CCC(c2cccc3c2OCC(=O)N3C2CCC(=O)NC2=O)CC1 (stereo not drawn) [Compound 29-5, 2-(4-(4-(2,6-dioxopiperidin-3-yl)-3-oxo-3,4-dihydro-2H-benzo[b][1,4]oxazin-8-yl)piperidin-1-yl)acetic acid] |  |  | Kd (CRBN-DDB1 (CRBN_DDB1.3) [1]; [7]): ≤ 100000 nM
O=C1CCC(N2C(=O)COc3c(Br)cccc32)C(=O)N1 (stereo not drawn) [Compound 33-5, 3-(8-bromo-3-oxo-1,4-benzoxazin-4-yl)piperidine-2,6-dione] |  |  | Kd (CRBN-DDB1 (CRBN_DDB1.7); benzomorpholine binders, read-out: FP CRBN_DDB1.7 0.05% PA, 0.1% BSA Ka nM): ≤ 100000 nM
O=C1CCC(N2CCc3c(N4CCNCC4)cccc32)C(=O)N1 (stereo not drawn) [Compound 37-4, 3-(4-piperazin-1-ylindolin-1-yl)piperidine-2,6-dione] |  | < 100000 | 
CC(C)(C)OC(=O)N1CCC2(CC1)Cc1ccccc1N(C1CCC(=O)NC1=O)C2 (stereo not drawn) [Compound 64-7, tert-butyl 1-(2,6-dioxo-3-piperidyl)spiro[2,4-dihydroquinoline-3,4′-piperidine]-1′-carboxylate] |  |  | Kd (CRBN-DDB1 (CRBN_DDB1.7); [6]): < 100000 nM
O=C1CCC(N2CCCc3c(N4CCC(O)CC4)cccc32)C(=O)N1 (stereo not drawn) [Compound 65-7, 3-[5-(4-hydroxy-1-piperidyl)-3,4-dihydro-2H-quinolin-1-yl]piperidine-2,6-dione] |  |  | Kd (CRBN-DDB1 (CRBN_DDB1.7); [6]): < 100000 nM

Second part, led by results:

Kd (CRBN-DDB1 (CRBN_DDB1.3) [1]; [3]) [nM] | Kd (CRBN-DDB1 (CRBN_DDB1.7); [4]) [nM] | SMILES | also measured
 | < 100000 | O=C1CC[C@H](N2CCc3c(N4CCC(O)CC4)cccc32)C(=O)N1 (single isomer, unassigned) [Compound 43-5] | 
 | < 100000 | CN(C(=O)OC(C)(C)C)C1CCN(c2c(F)ccc3c2CCN3[C@H]2CCC(=O)NC2=O)CC1 (single isomer, unassigned) [Compound 44-8] | 
 | < 100000 | CN(C(=O)OC(C)(C)C)C1CCN(c2c(F)ccc3c2CCN3[C@@H]2CCC(=O)NC2=O)CC1 (single isomer, unassigned) [Compound 44-9] | 
< 1000 | < 100000 | O=C1CC[C@H](N2CCc3c(N4CCC5(CC4)OCCO5)cccc32)C(=O)N1 (single isomer, unassigned) [Compound 45-3] | 
< 100000 | < 1000 | O=C1CC[C@@H](N2CCc3c(N4CCC5(CC4)OCCO5)cccc32)C(=O)N1 (single isomer, unassigned) [Compound 45-4] | 
< 100000 | < 100000 | CN(C(=O)OC(C)(C)C)[C@H]1CC[C@H](c2c(F)ccc3c2CCN3C2CCC(=O)NC2=O)CC1 (single isomer, unassigned) [Compound 46-9a, tert-butyl ((1r,4r)-4-(1-(2,6-dioxopiperidin-3-yl)-5-fluoroindolin-4-yl)cyclohexyl)(methyl)carbamate] | 
< 100000 | < 100000 | CN(C(=O)OC(C)(C)C)[C@H]1CC[C@@H](c2c(F)ccc3c2CCN3C2CCC(=O)NC2=O)CC1 (single isomer, unassigned) [Compound 46-9b, tert-butyl ((1s,4s)-4-(1-(2,6-dioxopiperidin-3-yl)-5-fluoroindolin-4-yl)cyclohexyl)(methyl)carbamate] | 
< 100000 | < 100000 | CC(C)(C)OC(=O)N1CCC(c2ccc3c(c2F)CCN3[C@H]2CCC(=O)NC2=O)CC1 (single isomer, unassigned) [Compound 47-6] | 
< 100000 | < 100000 | CC(C)(C)OC(=O)N1CCC(c2ccc3c(c2F)CCN3[C@@H]2CCC(=O)NC2=O)CC1 (single isomer, unassigned) [Compound 47-7] | 
< 100000 | < 100000 | CC(C)(C)OC(=O)N1CCC(c2c(F)ccc3c2CCN3[C@H]2CCC(=O)NC2=O)CC1 (single isomer, unassigned) [Compound 49-6] | 
< 100000 | < 100000 | CC(C)(C)OC(=O)N1CCC(c2c(F)ccc3c2CCN3[C@@H]2CCC(=O)NC2=O)CC1 (single isomer, unassigned) [Compound 49-7] | 
< 100000 | < 100000 | CC(C)(C)OC(=O)N1CCC(c2c(F)cc3c(c2F)CCN3[C@H]2CCC(=O)NC2=O)CC1 (single isomer, unassigned) [Compound 50-8] | 
< 100000 | < 100000 | CC(C)(C)OC(=O)N1CCC(c2c(F)cc3c(c2F)CCN3[C@@H]2CCC(=O)NC2=O)CC1 (single isomer, unassigned) [Compound 50-9] | 
< 100000 |  | O=C1CCC(N2CCc3c(N4CCC(C(F)(F)CO)CC4)cccc32)C(=O)N1 (stereo not drawn) [Compound 51-12, 3-[4-[4-(1,1-difluoro-2-hydroxy-ethyl)-1-piperidyl]indolin-1-yl]piperidine-2,6-dione] | 
